Source: US8486456B2, “Itraconazole compositions with improved bioavailability” (Abbott GmbH & Co., KG, priority 2005, dated 2013)

Columns and labels:
[1] = Thermal stability of itraconazole; assay type: physicochemical; details: temperatures up to 300° C.
[2] = aqueous media; cited from earlier work

- thermal stability [1]: thermally very stable
Compound: CCC(C)n1ncn(-c2ccc(N3CCN(c4ccc(OCC5COC(Cn6cncn6)(c6ccc(Cl)cc6Cl)O5)cc4)CC3)cc2)c1=O (single isomer, unassigned; (+)) [itraconazole, (+)-cis-4-[4-[4-[4-[[2-(2,4-dichlorophenyl)-2-(1H-1,2,4-triazol-1-yl-methyl)-1,3-dioxolan-4-yl]methoxy]phenyl]-1-piperazinyl]phenyl]-2,4-dihydro-2-(1-methylpropyl)-3H-1,2,4-triazol-3-one]
- solubility [2]: practically insoluble
